Measured values from ChEMBL document CHEMBL3045031, “Study on synthesis of thalidomide analogues and their bioactivities; inhibition on iNOS pathway and cytotoxic effects” (Med Chem Res, 2012).

How the values were obtained:
[1] = Cytotoxicity against Homo sapiens (human) HONE1 cells after 24 hr by MTT assay; format: functional, cell-based; conditions: HONE1, 24 h
HL-60 = assay: Cytotoxicity against Homo sapiens (human) HL60 cells after 24 hr by MTT assay; format: functional, cell-based; conditions: HL-60, 24 h
NUGC = assay: Cytotoxicity against Homo sapiens (human) NUGC cells after 24 hr by MTT assay; format: functional, cell-based
HEp-2 = assay: Cytotoxicity against Homo sapiens (human) Hep2 cells after 24 hr by MTT assay; format: functional, cell-based; conditions: HEp-2, 24 h
[2] = molecular target: T1, Nitric oxide synthase, inducible (Mus musculus) (UniProt P29477); assay: Inhibition of iNOS in Mus musculus (mouse) RAW 264.7 cells assessed as inhibition of LPS-induced nitrite production pretreated for 24 hr before stimulation with LPS measured after 18 hr by […]; design: concentration or dose not given beside the values; conditions: concentration not given here
T1 sequence (whole entry): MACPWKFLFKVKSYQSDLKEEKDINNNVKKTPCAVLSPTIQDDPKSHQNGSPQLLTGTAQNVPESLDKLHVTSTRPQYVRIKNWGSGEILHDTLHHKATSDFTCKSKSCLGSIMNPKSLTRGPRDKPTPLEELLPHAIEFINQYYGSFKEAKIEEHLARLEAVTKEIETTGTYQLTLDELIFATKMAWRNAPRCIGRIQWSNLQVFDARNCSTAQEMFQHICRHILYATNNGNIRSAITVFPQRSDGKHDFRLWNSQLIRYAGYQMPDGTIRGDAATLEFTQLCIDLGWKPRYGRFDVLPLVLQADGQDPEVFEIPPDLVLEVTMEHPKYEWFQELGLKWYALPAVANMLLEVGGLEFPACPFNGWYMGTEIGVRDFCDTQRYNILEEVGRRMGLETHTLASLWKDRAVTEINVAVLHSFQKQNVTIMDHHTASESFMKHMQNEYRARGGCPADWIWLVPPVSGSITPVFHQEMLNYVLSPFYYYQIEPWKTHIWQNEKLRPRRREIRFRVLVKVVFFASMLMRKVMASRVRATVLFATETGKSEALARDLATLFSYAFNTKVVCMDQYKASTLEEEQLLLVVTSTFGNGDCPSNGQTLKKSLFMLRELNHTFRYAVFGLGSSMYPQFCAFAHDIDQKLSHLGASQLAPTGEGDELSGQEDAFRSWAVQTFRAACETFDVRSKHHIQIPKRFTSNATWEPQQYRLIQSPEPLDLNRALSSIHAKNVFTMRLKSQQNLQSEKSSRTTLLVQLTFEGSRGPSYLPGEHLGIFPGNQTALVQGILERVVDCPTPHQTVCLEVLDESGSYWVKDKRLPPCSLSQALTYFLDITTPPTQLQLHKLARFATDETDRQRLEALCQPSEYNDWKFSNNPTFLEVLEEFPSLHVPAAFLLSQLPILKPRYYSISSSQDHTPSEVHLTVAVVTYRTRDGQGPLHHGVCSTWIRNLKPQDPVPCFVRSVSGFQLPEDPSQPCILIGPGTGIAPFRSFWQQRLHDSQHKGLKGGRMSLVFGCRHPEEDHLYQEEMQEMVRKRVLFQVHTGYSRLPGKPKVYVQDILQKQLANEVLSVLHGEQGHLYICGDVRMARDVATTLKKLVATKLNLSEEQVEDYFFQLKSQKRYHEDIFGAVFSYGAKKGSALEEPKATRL

| inhibition [2] [%] | SMILES | IC50 [1] [µM] | IC50 (HL-60) [µM] | IC50 (NUGC) [µM] | IC50 (HEp-2) [µM] |
| --- | --- | --- | --- | --- | --- |
| 91.9 | Cc1ccc2c(c1)C(=O)N(c1ccc(/N=N\c3ccccc3)cc1)C2=O | > 200 | 59.5 | > 200 | 104 |
| 68.4 | Nc1cccc(N2C(=O)C3C4C=CC(CC4)C3C2=O)c1 (stereo unspecified) | > 200 | 64.1 |  | 53.4 |
| 68.4 | N#Cc1ccc(N2C(=O)[C@@H]3C4C=CC(CC4)[C@@H]3C2=O)cc1 | > 200 |  |  |  |
| 81.4 | Nc1cccc(N2C(=O)c3cccc4cccc(c34)C2=O)c1 | > 200 | > 200 | > 200 | 147 |
| 90.6 | O=C1c2ccccc2C(=O)N1c1cccc([N+](=O)[O-])c1 |  | 174 | > 200 | 179 |
| 90.6 | Nc1ccc(N2C(=O)c3cccc4cccc(c34)C2=O)cc1 | > 200 | > 200 | > 200 | 43.9 |
| 94.5 | O=C1c2ccccc2C(=O)N1c1ccc(Cl)cn1 | > 200 | 67.2 | > 200 | 56.7 |
| 76.9 | Nc1ccccc1N1C(=O)C2C3C=CC(CC3)C2C1=O (stereo unspecified) | > 200 | 67.6 | > 200 | 32.5 |
| 94.5 | O=C1c2ccccc2C(=O)N1c1ccc(S)cc1 | > 200 | > 200 | > 200 | > 200 |
| 87.3 | COc1ccc(N2C(=O)c3ccccc3C2=O)cc1 | > 200 | > 200 | > 200 | > 200 |
| 87.9 | Nc1ccc(N2C(=O)[C@@H]3C4C=CC(CC4)[C@@H]3C2=O)cc1 |  | 166 |  | > 200 |
| 89.2 | O=C1c2ccccc2C(=O)N1c1ccccc1 [N-PHENYL-PHTHALIMIDE] |  | > 200 | > 200 | > 200 |
| 75.5 | Nc1ccccc1CN1C(=O)C2C3C=CC(CC3)C2C1=O (stereo unspecified) | > 200 | > 200 | > 200 |  |
| 70.9 | Cc1ccc2c(c1)C(=O)N(c1ccc(-c3ccccc3)cc1)C2=O | > 200 | 59.5 |  | 104 |
| 77.9 | O=C1C2C3C=CC(CC3)C2C(=O)N1c1ncc(Cl)cc1Cl (stereo unspecified) | > 200 | 139 |  | > 200 |
| 71.5 | O=C1c2ccccc2C(=O)N1c1ccc(Cl)cc1 |  | > 200 | > 200 | 178 |
| 84.6 | COc1ccc(N2C(=O)C3C4C=CC(CC4)C3C2=O)cc1 (stereo unspecified) |  | > 200 | > 200 | > 200 |

| inhibition [2] [%] | SMILES | IC50 [1] [µM] | IC50 (HL-60) [µM] | IC50 (NUGC) [µM] | IC50 (HEp-2) [µM] |
| --- | --- | --- | --- | --- | --- |
| 44.9 | O=C1C2C3C=CC(CC3)C2C(=O)N1c1ccc(Cl)cn1 (stereo unspecified) | > 200 | > 200 | > 200 | > 200 |
| 98.4 | Cc1ccc2c(c1)C(=O)N(Cc1ccccc1N)C2=O | > 200 | > 200 | > 200 |  |
| 91.9 | Nc1cccc(CN2C(=O)c3ccccc3C2=O)c1 | > 200 | 78.1 | > 200 |  |
| 80.1 | N#Cc1ccccc1N1C(=O)c2ccccc2C1=O | > 200 | > 200 | > 200 | > 200 |
| 72.8 | CC1=C(C)C(=O)N(Cc2ccccc2N)C1=O | > 200 | 139 | > 200 |  |
| 74.8 | Cc1ccc2c(c1)C(=O)N(c1ccc([N+](=O)[O-])cn1)C2=O | > 200 | > 200 | > 200 | 172 |
| 67.6 | O=C1c2ccccc2C(=O)N1c1ccccn1 | 156 | > 200 | > 200 | 65.8 |
| 82 | O=C1C2C3C=CC(CC3)C2C(=O)N1c1ccccc1 (stereo unspecified) | > 200 | 118 |  | 41.2 |
| 81.4 | Nc1ccc(CN2C(=O)c3ccccc3C2=O)cc1 | > 200 | > 200 | > 200 |  |
| 84.6 | O=C1c2ccccc2C(=O)N1c1ccc(-c2ccccc2)cc1 | > 200 | 119 | > 200 | 40.4 |
| 56.6 | O=C1C2C3C=CC(CC3)C2C(=O)N1c1ccc(Br)cn1 (stereo unspecified) |  | > 200 | > 200 | 150 |
| 67.6 | O=C1c2cccc3cccc(c23)C(=O)N1c1ccccc1 | > 200 | > 200 | > 200 | 44.2 |
| 85.3 | O=C1c2ccccc2C(=O)N1c1ccccc1N1C(=O)c2ccccc2C1=O | > 200 | > 200 | > 200 | 56.8 |
| 28.2 | O=C1CCC(N2C(=O)c3ccccc3C2=O)C(=O)N1 (stereo unspecified) |  |  |  |  |
| 80.7 | Cc1cccc2c1C(=O)N(Cc1ccc(N)cc1)C2=O | > 200 | > 200 | > 200 |  |
| 86.6 | O=C1C2C3C=CC(CC3)C2C(=O)N1c1ccc(-c2ccccc2)cc1 (stereo unspecified) |  | 104 | > 200 | 46.3 |
| 87.9 | O=C1C2C3C=CC(CC3)C2C(=O)N1c1ccc(S)cc1 (stereo unspecified) |  |  |  |  |
